# Entries after “also recorded” stand apart in the source; their conditions may differ.
# System: cerebral vein of Galen from NonP rats
# Test: BBB permeability (hydraulic conductivity, Lp) in isolated cerebral veins perfused with human plasma
# Parameters: species or system rat
# Method: BBB permeability measurements. The first set of experiments was performed to determine the effects of circulating factors in plasma from EPE and LPE women on the BBB permeability compared to NP women and NonP women. We measured Lp, the critical transport parameter that relates water flux to hydrostatic pressure, in isolated cerebral veins from nonpregnant female rats after perfusing with plasma from the 4 groups of women, as described previously (52). This method of measuring BBB permeability was specifically developed to have a direct measure of water permeability and has been successfully used in several previous studies (13, 52-54).
# The vein of Galen was used for all permeability experiments as representation of the BBB because this vein has BBB properties and is where BBB disruption occurs first during acute hypertension (55). […] After this incubation period with plasma, intravascular pressure was increased to 25±0.1 mmHg and the drop in pressure due to transvascular filtration of water out of the vessel in response to hydrostatic pressure was measured for 40 minutes. […] After flux was determined, transvascular filtration per surface area (Jv/S) and Lp were calculated by normalizing flux to the surface area and oncotic pressure of the plasma perfusate that was determined by a commercially available oncometer. […]
smiles,measurement,setting,value
"C[n+]1ccc(-c2c3nc(c(-c4cc[n+](C)cc4)c4ccc([n-]4)c(-c4cc[n+](C)cc4)c4nc(c(-c5cc[n+](C)cc5)c5ccc2[n-]5)C=C4)C=C3)cc1.[Cl-].[Cl-].[Cl-].[Cl-].[Cl-].[Fe+3] [FeTMPyP, Fe(III)tetrakis (1-methyl-4-pyridyl) porphyrin pentachlorideporphyrin pentachloride]",effect on BBB permeability (Lp at 36 minutes) induced by plasma from EPE women,EPE plasma plus 50 μM FeTMPyP,significantly inhibited BBB permeability; also recorded: inhibited the BBB permeability induced by plasma from EPE women
same,effect on BBB permeability (Lp) induced by exogenous oxLDL,NonP plasma plus 3.5 μg/ml oxLDL and 50 μM FeTMPyP,inhibited the BBB permeability induced by 3.5 μg/ml exogenous oxLDL
